Patent publication US9908868B2, “Isoindolinone compounds as GPR119 modulators for the treatment of diabetes, obesity, dyslipidemia and related disorders” (SANOFI, priority 2014, dated 2018)

Target: T1, human GPR119 (Homo sapiens, UniProt Q8TDV5)
T1 construct: expressed in transfected cells
T1 sequence (Q8TDV5 1-335): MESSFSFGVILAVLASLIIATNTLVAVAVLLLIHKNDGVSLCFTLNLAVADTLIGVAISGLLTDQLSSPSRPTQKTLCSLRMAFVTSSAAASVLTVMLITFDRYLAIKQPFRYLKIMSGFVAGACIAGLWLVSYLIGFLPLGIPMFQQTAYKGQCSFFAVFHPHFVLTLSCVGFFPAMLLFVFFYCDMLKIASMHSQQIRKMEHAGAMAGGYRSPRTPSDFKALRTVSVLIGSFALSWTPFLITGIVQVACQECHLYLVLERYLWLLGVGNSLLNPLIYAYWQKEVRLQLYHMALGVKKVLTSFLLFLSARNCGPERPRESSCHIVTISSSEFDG
Experiment: Functional cellular assay measuring GPR119-mediated cAMP release (HTRF) in HEK-293 cells stably expressing recombinant human GPR119
Assay type: cell-based
Settings: cAMP response, cell line expressing human GPR119, 30 minutes at room temperature
How it was run: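 HEK-293 cells stably expressing recombinant human GPR119, suspended at 400000 cells/mL in HBSS/20 mM HEPES/0.1% BSA/2 mM IBMX, exposed to compound for 30 minutes at room temperature. cAMP detected by HTRF (665/620 nm ratio) after 1 h with reagents in lysis buffer. EC50 taken as concentration giving 50% of maximal activation.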

SMILES	EC50 [nM]
CN(C)C(=O)CN1Cc2ccc(N3CC[C@@H](Oc4ccc(F)cc4)C3=O)cc2C1=O [Example 2-09, 2-[6-[(3R)-3-(4-fluorophenoxy)-2-oxo-pyrrolidin-1-yl]-1-oxo-isoindolin-2-yl]-N,N-dimethyl-acetamide]	739
CN(C)C(=O)CN1Cc2ccc(N3CC[C@@H](Oc4ccc(Cl)nc4)C3=O)cc2C1=O [Example 2-10, 2-[6-[(3R)-3-[(6-chloro-3-pyridyl)oxy]-2-oxo-pyrrolidin-1-yl]-1-oxo-isoindolin-2-yl]-N,N-dimethyl-acetamide]	2070
CCC(=O)c1ccc(O[C@@H]2CCN(c3ccc4c(c3)C(=O)N(CC(=O)N(C)C)C4)C2=O)cc1 [Example 2-11, N,N-dimethyl-2-[1-oxo-6-[(3R)-2-oxo-3-(4-propanoylphenoxy)pyrrolidin-1-yl]isoindolin-2-yl]acetamide]	267
CN(C)C(=O)CN1Cc2ccc(N3CC[C@@H](Oc4ccc(F)nc4)C3=O)cc2C1=O [Example 2-17, 2-[6-[(3R)-3-[(6-fluoro-3-pyridyl)oxy]-2-oxo-pyrrolidin-1-yl]-1-oxo-isoindolin-2-yl]-N,N-dimethyl-acetamide]	9360
CN(C)C(=O)CN1Cc2ccc(N3CC[C@@H](Oc4ccc(SC5CC5)nc4)C3=O)cc2C1=O [Example 2-20, 2-[6-[(3R)-3-[(6-cyclopropylsulfanyl-3-pyridyl)oxy]-2-oxo-pyrrolidin-1-yl]-1-oxo-isoindolin-2-yl]-N,N-dimethyl-acetamide]	233
CN(C)C(=O)CN1Cc2ccc(N3CC[C@@H](Oc4ccc(Oc5ccccn5)cc4)C3=O)cc2C1=O [Example 2-23, N,N-dimethyl-2-[1-oxo-6-[(3R)-2-oxo-3-[4-(2-pyridyloxy)phenoxy]pyrrolidin-1-yl]isoindolin-2-yl]acetamide]	261
CN(C)C(=O)CN1Cc2ccc(N3CC[C@@H](Oc4ccc(N5CCOCC5)cc4)C3=O)cc2C1=O [Example 2-24, N,N-dimethyl-2-[6-[(3R)-3-(4-morpholinophenoxy)-2-oxo-pyrrolidin-1-yl]-1-oxo-isoindolin-2-yl]acetamide]	21000
CN(C)C(=O)CN1Cc2ccc(N3CC[C@@H](Oc4ccc(-n5cncn5)cc4)C3=O)cc2C1=O [Example 2-25, N,N-dimethyl-2-[1-oxo-6-[(3R)-2-oxo-3-[4-(1,2,4-triazol-1-yl)phenoxy]pyrrolidin-1-yl]isoindolin-2-yl]acetamide]	12000
CC(=O)N1CCN(c2ccc(O[C@@H]3CCN(c4ccc5c(c4)C(=O)N(CC(=O)N(C)C)C5)C3=O)cc2)CC1 [Example 2-26, 2-[6-[(3R)-3-[4-(4-acetylpiperazin-1-yl)phenoxy]-2-oxo-pyrrolidin-1-yl]-1-oxo-isoindolin-2-yl]-N,N-dimethyl-acetamide]	1060
CN(C)C(=O)CN1Cc2ccc(N3CC[C@@H](Oc4ccc(S(F)(F)(F)(F)F)cc4)C3=O)cc2C1=O [Example 2-27, N,N-dimethyl-2-[1-oxo-6-[(3R)-2-oxo-3-[4-(pentafluoro-λ{6}-sulfanyl)phenoxy]pyrrolidin-1-yl]isoindolin-2-yl]acetamide]	160
CN(C)C(=O)CN1Cc2ccc(N3CC[C@@H](Oc4ccc(N5CCCC5=O)cc4)C3=O)cc2C1=O [Example 2-28, N,N-dimethyl-2-[1-oxo-6-[(3R)-2-oxo-3-[4-(2-oxopyrrolidin-1-yl)phenoxy]pyrrolidin-1-yl]isoindolin-2-yl]acetamide]	1470
CN(C)C(=O)CN1Cc2ccc(N3CC[C@@H](Oc4ccc(-c5nnco5)cc4)C3=O)cc2C1=O [Example 2-29, N,N-dimethyl-2-[6-[(3R)-3-[4-(1,3,4-oxadiazol-2-yl)phenoxy]-2-oxo-pyrrolidin-1-yl]-1-oxo-isoindolin-2-yl]acetamide]	3390
Cc1csc(-c2ccc(O[C@@H]3CCN(c4ccc5c(c4)C(=O)N(CC(=O)N(C)C)C5)C3=O)cc2)n1 [Example 2-31, N,N-dimethyl-2-[6-[(3R)-3-[4-(4-methylthiazol-2-yl)phenoxy]-2-oxo-pyrrolidin-1-yl]-1-oxo-isoindolin-2-yl]acetamide]	343
Cc1nc(-c2ccc(O[C@@H]3CCN(c4ccc5c(c4)C(=O)N(CC(=O)N(C)C)C5)C3=O)cc2)no1 [Example 2-32, N,N-dimethyl-2-[6-[(3R)-3-[4-(5-methyl-1,2,4-oxadiazol-3-yl)phenoxy]-2-oxo-pyrrolidin-1-yl]-1-oxo-isoindolin-2-yl]acetamide]	268
CN(C)C(=O)CN1Cc2ccc(N3CC[C@@H](Oc4ccc(NC5=NC(=O)CS5)cc4)C3=O)cc2C1=O [Example 2-33, N,N-dimethyl-2-[1-oxo-6-[(3R)-2-oxo-3-[4-[(4-oxothiazol-2-yl)amino]phenoxy]pyrrolidin-1-yl]isoindolin-2-yl]acetamide]	2210
CN(C)C(=O)CN1Cc2ccc(N3CC[C@@H](Oc4ccc(C(=O)N5CCCC5)cc4)C3=O)cc2C1=O [Example 2-35, N,N-dimethyl-2-[1-oxo-6-[(3R)-2-oxo-3-[4-(pyrrolidine-1-carbonyl)phenoxy]pyrrolidin-1-yl]isoindolin-2-yl]acetamide]	8660
CN(C)C(=O)CN1Cc2ccc(N3CC[C@@H](Oc4ccc(-n5cnnc5)cc4)C3=O)cc2C1=O [Example 2-36, N,N-dimethyl-2-[1-oxo-6-[(3R)-2-oxo-3-[4-(1,2,4-triazol-4-yl)phenoxy]pyrrolidin-1-yl]isoindolin-2-yl]acetamide]	32800
CN(C)C(=O)CN1Cc2ccc(N3CC[C@@H](Oc4ccc(-c5cnco5)cc4)C3=O)cc2C1=O [Example 2-37, N,N-dimethyl-2-[6-[(3R)-3-(4-oxazol-5-ylphenoxy)-2-oxo-pyrrolidin-1-yl]-1-oxo-isoindolin-2-yl]acetamide]	862

Compounds with a lower EC50, results first:

EC50 [nM]	SMILES
85	CN(C)C(=O)CN1Cc2ccc(N3CC[C@@H](Oc4ccc(Oc5ccc(F)cc5)nc4)C3=O)cc2C1=O [Example 2-14, 2-[6-[(3R)-3-[[6-(4-fluorophenoxy)-3-pyridyl]oxy]-2-oxo-pyrrolidin-1-yl]-1-oxo-isoindolin-2-yl]-N,N-dimethyl-acetamide]
84	CC(C)c1noc(-c2ccc(O[C@@H]3CCN(c4ccc5c(c4)C(=O)N(CC(=O)N(C)C)C5)C3=O)cc2)n1 [Example 2-34, 2-[6-[(3R)-3-[4-(3-isopropyl-1,2,4-oxadiazol-5-yl)phenoxy]-2-oxo-pyrrolidin-1-yl]-1-oxo-isoindolin-2-yl]-N,N-dimethyl-acetamide]
82	CN(C)C(=O)CN1Cc2ccc(N3CC[C@@H](Oc4ccc(OCC(F)(F)F)cc4)C3=O)cc2C1=O [Example 2-30, N,N-dimethyl-2-[1-oxo-6-[(3R)-2-oxo-3-[4-(2,2,2-trifluoroethoxy)phenoxy]pyrrolidin-1-yl]isoindolin-2-yl]acetamide]
75	CCCC(=O)c1ccc(O[C@@H]2CCN(c3ccc4c(c3)C(=O)N(CC(=O)N(C)C)C4)C2=O)cc1 [Example 2-13, 2-[6-[(3R)-3-(4-butanoylphenoxy)-2-oxo-pyrrolidin-1-yl]-1-oxo-isoindolin-2-yl]-N,N-dimethyl-acetamide]
74	CN(C)C(=O)CN1Cc2ccc(N3CC[C@@H](Oc4ccc(O[C@@H]5C[C@@H]6C[C@@H]6C5)nc4)C3=O)cc2C1=O [Example 2-18, 2-[6-[(3R)-3-[[6-[[(1S,5R)-3-bicyclo[3.1.0]hexanyl]oxy]-3-pyridyl]oxy]-2-oxo-pyrrolidin-1-yl]-1-oxo-isoindolin-2-yl]-N,N-dimethyl-acetamide]
72	CN(C)C(=O)CN1Cc2ccc(N3CC[C@@H](Oc4ccc(C(=O)CC5CC5)cc4)C3=O)cc2C1=O [Example 2-21, 2-[6-[(3R)-3-[4-(2-cyclopropylacetyl)phenoxy]-2-oxo-pyrrolidin-1-yl]-1-oxo-isoindolin-2-yl]-N,N-dimethyl-acetamide]
66	CN(C)C(=O)CN1Cc2ccc(N3CC[C@@H](Oc4ccc(C(=O)c5ccc(F)cc5)cc4)C3=O)cc2C1=O [Example 2-15, 2-[6-[(3R)-3-[4-(4-fluorobenzoyl)phenoxy]-2-oxo-pyrrolidin-1-yl]-1-oxo-isoindolin-2-yl]-N,N-dimethyl-acetamide]
47	CN(C)C(=O)CN1Cc2ccc(N3CC[C@@H](Oc4ccc(Oc5ccc(F)cc5)cc4)C3=O)cc2C1=O [Example 2-16, 2-[6-[(3R)-3-[4-(4-fluorophenoxy)phenoxy]-2-oxo-pyrrolidin-1-yl]-1-oxo-isoindolin-2-yl]-N,N-dimethyl-acetamide]
47	CN(C)C(=O)CN1Cc2ccc(N3CC[C@@H](Oc4ccc(SCC5CC5)nc4)C3=O)cc2C1=O [Example 2-19, 2-[6-[(3R)-3-[[6-(cyclopropylmethylsulfanyl)-3-pyridyl]oxy]-2-oxo-pyrrolidin-1-yl]-1-oxo-isoindolin-2-yl]-N,N-dimethyl-acetamide]
44	CCCCC(=O)c1ccc(O[C@@H]2CCN(c3ccc4c(c3)C(=O)N(CC(=O)N(C)C)C4)C2=O)cc1 [Example 2-12, N,N-dimethyl-2-[1-oxo-6-[(3R)-2-oxo-3-(4-pentanoylphenoxy)pyrrolidin-1-yl]isoindolin-2-yl]acetamide]
41	CN(C)C(=O)CN1Cc2ccc(N3CC[C@@H](Oc4ccc(SC(F)(F)F)cc4)C3=O)cc2C1=O [Example 2-22, N,N-dimethyl-2-[1-oxo-6-[(3R)-2-oxo-3-[4-(trifluoromethylsulfanyl)phenoxy]pyrrolidin-1-yl]isoindolin-2-yl]acetamide]
